Marks after values point to notes of the source that are not given here.
Columns and labels:
Format in all cases: cell-based
[1] = test system: S. aureus; assay: MIC on DST-agar plates against S. aureus; parameters: key: +++: Same growth as on the control plate without any chlorhexidine and/or pentane-1,5-diol; ++: Reduced growth compared to the control; +: Very poor growth; −: No growth
Procedure: The minimal inhibitory concentration (MIC) of pentane-1,5-diol and chlorhexidine against S. aureus was determined using bacteria concentrations of 6×10^6 (20 μl applicated onto DST-agar plates). The results are depicted below in table 1 and 2.
The minimal inhibitory concentration (MIC) of pentane-1,5-diol combined with chlorhexidine against S. aureus was determined using bacteria concentrations of 6×10^6 (20 μl applicated onto DST-agar plates).

[2] = test system: P. acnes; assay: MIC on blood agar plates against P. acnes; parameters: key: +++: Same growth as on the control plate without any chlorhexidine and/or pentane-1,5-diol; ++: Reduced growth compared to the control; +: Very poor growth; −: No growth
Procedure: The minimal inhibitory concentration (MIC) of pentane-1,5-diol and chlorhexidine against P. acnes was determined using bacteria concentrations of 6×10^6 (20 μl applicated onto blood agar plates). The results are depicted below in table 4 and 5.
The minimal inhibitory concentration (MIC) of pentane-1,5-diol combined with chlorhexidine against P. acnes was determined using bacteria concentrations of 6×10^6 (20 μl applicated onto blood agar plates).

[3] = test system: S. pyogenes A CCUG 4208; assay: MIC on blood agar plates against S. pyogenes A CCUG 4208; parameters: key: +++: Same growth as on the control plate without any chlorhexidine and/or pentane-1,5-diol; ++: Reduced growth compared to the control; +: Very poor growth; −: No growth
Procedure: The minimal inhibitory concentration (MIC) of pentane-1,5-diol combined with chlorhexidine against S. pyogenes A CCUG 4208 was determined using bacteria concentrations of 6×10^7 (20 μl applicated onto blood agar plates). The results are depicted below in table 7 and 8.

[4] = test system: C. albicans (CCUG 5594); assay: MIC by agar dilution assay, C. albicans
Procedure: (§1) Chlorhexidine digluconate (CHG) solution, 20% water, […]-25ML, (Sigma, St. Louis, USA) and PD, (BASF AG, Ludwigshafen, Germany) were used in the study and the following reference strains were tested; C. albicans (CCUG 5594), S. aureus (CCUG 17621) and P. acnes (CCUG 1794). Minimum inhibitory concentration of CHG and pentane-1,5-diol (PD) were determined by agar dilution assay. A series of dilutions of each compound were prepared in blood agar medium for P. acnes, and in Diagnostic Sensitivity Test (DST) agar (Oxoid, Basingstoke, UK) for C. albicans and S. aureus. Dilution series with each agent were made with freshly prepared agar at 48-50° C. Final concentration ranges were as follows: CHG solution, 0.00001 to 1% (w/v) and PD, 1-30% (v/v). The prepared plates were solidified and used immediately. For each organism an inoculum was prepared by growing organisms on blood agar. Colonies were suspended in phosphate-buffered saline (PBS) and suspensions were adjusted to approximately 6×10^6 CFU/ml for C. albicans and P. acnes and 6×10^5 CFU/mL for S. aureus. The plates were inoculated with 20 μl spots and incubated for one day for C. albicans and S. aureus and three days for P. acnes. MICs were then determined as the lowest concentration of the compound inhibiting growth of the isolates. First the MICs of CHG and PD, respectively, were determined for each micro-organism. Then, a range of combined CHG and PD concentrations were tested on each micro-organism to determine if there was synergistic activity. The definition of synergistic effect is: “An effect that is greater than the sum of the effects of the two drugs, such as the equation: 1+1 . . . ”. Each isolate was tested twice.

[5] = test system: S. aureus (CCUG 17621); assay: MIC by agar dilution assay, S. aureus
Procedure: as §1

[6] = test system: P. acnes (CCUG 1794); assay: MIC by agar dilution assay, P. acnes
Procedure: as §1

[7] = growth grade at pentane-1,5-diol 5 wt %
[8] = growth grade at pentane-1,5-diol 6 wt %
[9] = growth grade at pentane-1,5-diol 7 wt %
[10] = growth grade at pentane-1,5-diol 10 wt %
[11] = growth grade at pentane-1,5-diol 20 wt %
[12] = growth grade at pentane-1,5-diol 30 wt %
[13] = C. albicans CCUG5594, agar dilution
[14] = S. aureus CCUG17621, agar dilution
[15] = P. acnes CCUG1794, agar dilution

`OCCCCCO` [Pentane-1,5-diol, pentane-1,5-diol] was tested, and the bacterial growth grade [1, 7] was “+++^a”, the bacterial growth grade [1, 8] was “++” and the bacterial growth grade [1, 9] was “++”. For the same compound, the bacterial growth grade ([1]; growth grade at pentane-1,5-diol 8 wt %) was “+”, the bacterial growth grade ([1]; growth grade at pentane-1,5-diol 9 wt %) was “−” and the bacterial growth grade [1, 10] was “−”. For the same compound, the bacterial growth grade [1, 11] was “−”, the bacterial growth grade [1, 12] was “−” and the growth grade ([2]; growth grade at pentane-1,5-diol 1 wt %) was “+++”. The growth grade ([2]; growth grade at pentane-1,5-diol 3 wt %) was “++”, the growth grade [2, 7] was “+” and the growth grade [2, 8] was “−”. For the same compound, the growth grade [2, 9] was “−”, the growth grade [2, 10] was “−” and the growth grade [2, 11] was “−”. For the same compound, the growth grade [2, 12] was “−”, the growth grade ([3]; growth grade at 1,5-pentanediol 2 %) was “+++” and the growth grade ([3]; growth grade at 1,5-pentanediol 4 %) was “++”. For the same compound, the growth grade ([3]; growth grade at 1,5-pentanediol 6 %) was “+”, the growth grade ([3]; growth grade at 1,5-pentanediol 7 %) was “−” and the growth grade ([3]; growth grade at 1,5-pentanediol 8 %) was “−”. The growth grade ([3]; growth grade at 1,5-pentanediol 9 %) was “−”, the growth grade ([3]; growth grade at 1,5-pentanediol 10 %) was “−” and the growth grade ([3]; growth grade at 1,5-pentanediol 15 %) was “−”. The “MIC combined PD” value ([4]; C. albicans CCUG5594, PD in combination with CHG 0.00005 w/v %) was 3 v/v %, the “MIC alone PD” value [4, 13] was 5 v/v % and the “Ratio (alone/combined) PD/PD + CHG” value ([4]; C. albicans CCUG5594, reduction of the MIC of PD) was 2. The “MIC combined PD” value ([5]; S. aureus CCUG17621, PD in combination with CHG 0.00001 w/v %) was 8 v/v %, the “MIC alone PD” value [5, 14] was 9 v/v % and the “Ratio (alone/combined) PD/PD + CHG” value ([5]; S. aureus CCUG17621, reduction of the MIC of PD) was 1. The “MIC combined PD” value ([6]; P. acnes CCUG1794, PD in combination with CHG 0.00005 w/v %) was 3 v/v %, the “MIC alone PD” value [6, 15] was 6 v/v % and the “Ratio (alone/combined) PD/PD + CHG” value ([6]; P. acnes CCUG1794, reduction of the MIC of PD) was 2.
For `[H]/N=C(\N/C(=N/[H])NCCCCCCNC(=N)NC(=N)Nc1ccc(Cl)cc1)Nc1ccc(Cl)cc1` [Chlorhexidine, chlorhexidine digluconate], the bacterial growth grade ([1]; S. aureus, growth grade at chlorhexidine 0.00001 wt %) was “+++”, the bacterial growth grade ([1]; S. aureus, growth grade at chlorhexidine 0.00005 wt %) was “++” and the bacterial growth grade ([1]; S. aureus, growth grade at chlorhexidine 0.0001 wt %) was “−”. The bacterial growth grade ([1]; S. aureus, growth grade at chlorhexidine 0.0005 wt %) was “−”, the bacterial growth grade ([1]; S. aureus, growth grade at chlorhexidine 0.001 wt %) was “−” and the bacterial growth grade ([1]; S. aureus, growth grade at chlorhexidine 0.005 wt %) was “−”. The bacterial growth grade ([1]; S. aureus, growth grade at chlorhexidine 0.01 wt %) was “−”, the bacterial growth grade ([1]; S. aureus, growth grade at chlorhexidine 0.02 wt %) was “−” and the bacterial growth grade ([1]; S. aureus, growth grade at chlorhexidine 0.05 wt %) was “−”. For the same compound, the bacterial growth grade ([1]; S. aureus, growth grade at chlorhexidine 0.1 wt %) was “−”, the bacterial growth grade ([1]; S. aureus, growth grade at chlorhexidine 0.5 wt %) was “−” and the bacterial growth grade ([1]; S. aureus, growth grade at chlorhexidine 1 wt %) was “−”. The growth grade ([2]; growth grade at chlorhexidine 0.00001 wt %) was “+++”, the growth grade ([2]; growth grade at chlorhexidine 0.00005 wt %) was “++” and the growth grade ([2]; growth grade at chlorhexidine 0.0001 wt %) was “−”. The growth grade ([2]; growth grade at chlorhexidine 0.0005 wt %) was “−”, the growth grade ([2]; growth grade at chlorhexidine 0.001 wt %) was “−” and the growth grade ([2]; growth grade at chlorhexidine 0.005 wt %) was “−”. The growth grade ([2]; growth grade at chlorhexidine 0.01 wt %) was “−”, the growth grade ([2]; growth grade at chlorhexidine 0.02 wt %) was “−” and the growth grade ([2]; growth grade at chlorhexidine 0.05 wt %) was “−”. The growth grade ([2]; growth grade at chlorhexidine 0.1 wt %) was “−”, the growth grade ([2]; growth grade at chlorhexidine 0.5 wt %) was “−” and the growth grade ([2]; growth grade at chlorhexidine 1 wt %) was “−”. For the same compound, the growth grade ([3]; growth grade at chlorhexidine digluconate 0.00001 %) was “+++”, the growth grade ([3]; growth grade at chlorhexidine digluconate 0.00005 %) was “+++” and the growth grade ([3]; growth grade at chlorhexidine digluconate 0.0001 %) was “+”. The growth grade ([3]; growth grade at chlorhexidine digluconate 0.0005 %) was “−”, the growth grade ([3]; growth grade at chlorhexidine digluconate 0.001 %) was “−” and the growth grade ([3]; growth grade at chlorhexidine digluconate 0.005 %) was “−”. The growth grade ([3]; growth grade at chlorhexidine digluconate 0.01 %) was “−”, the growth grade ([3]; growth grade at chlorhexidine digluconate 0.05 %) was “−” and the growth grade ([3]; growth grade at chlorhexidine digluconate 0.1 %) was “−”. The growth grade ([3]; growth grade at chlorhexidine digluconate 0.5 %) was “−”, the “factor by which MIC of CHG was lower than PD” value ([4]; C. albicans) was 1×10^−4 and the “MIC combined CHG” value ([4]; C. albicans CCUG5594, CHG in combination with PD 3 v/v %) was 0.00005 w/v %. The “MIC alone CHG” value [4, 13] was 0.0005 w/v %, the “Ratio (alone/combined) CHG/CHG + PD” value ([4]; C. albicans CCUG5594, reduction of the MIC of CHG) was 10 and the “factor by which MIC of CHG was lower than PD” value ([5]; S. aureus) was 6×10^−5. The “MIC combined CHG” value ([5]; S. aureus CCUG17621, CHG in combination with PD 8 v/v %) was 0.00001 w/v %, the “MIC alone CHG” value [5, 14] was 0.0001 w/v % and the “Ratio (alone/combined) CHG/CHG + PD” value ([5]; S. aureus CCUG17621, reduction of the MIC of CHG) was 10. The “factor by which MIC of CHG was lower than PD” value ([6]; P. acnes) was 9×10^−5, the “MIC combined CHG” value ([6]; P. acnes CCUG1794, CHG in combination with PD 3 v/v %) was 0.00005 w/v % and the “MIC alone CHG” value [6, 15] was 0.0001 w/v %. The “Ratio (alone/combined) CHG/CHG + PD” value ([6]; P. acnes CCUG1794, reduction of the MIC of CHG) was 2.

— patent US20120004314A1, “ANTIMICROBIAL COMPOSITION” (AMBRIA DERMATOLOGY AB, priority 2008, published 2012)
